Assay results as given in patent publication US20180028982A1, “CONTAINER WITH BIOFILM FORMATION-INHIBITING MICROORGANISMS IMMOBILIZED THEREIN AND MEMBRANE WATER TREATMENT APPARATUS USING THE SAME” (SNU R&DB FOUNDATION, priority 2010, published 2018).

System: AI-2 quorum sensing mechanism
Experiment: Inhibition of AI-2 quorum sensing, bioluminescence of Vibrio harveyi BB170 after reaction with Vibrio harveyi BB152 samples
Type: cell-based
Details: farnesol 800 μM on Vibrio harveyi BB152, reaction for 90 minutes, versus no farnesol (Control)
Text: The effect of inhibition of quorum sensing for certain microorganisms (bacteria) for water treatment by farnesol secreted by the biofilm formation-inhibiting microorganisms, i.e., Candida albicans is thought to be attributed to the inhibition of quorum sensing mechanism using AI-2 signal molecules, which was indirectly assessed by means of Vibrio harveyi BB152, a bacteria producing only AI-2, and Vibrio harveyi BB170, bacteria allowing bioluminescence by specifically accepting only AI-2. Particularly, Vibrio harveyi BB152 producing only AI-2 signal molecules was inoculated in an AB medium (Autoinducer Bioassay medium, Tega et al., 2011) and cultivated to a certain degree of optical density (O.D.600) of 0.1-0.3. Farnesol was injected to attain final concentration of 800 μM (and no farnesol was injected for its comparison), each sample was taken after reaction for 90 minutes, and the each sample was reacted with Vibrio harveyi BB170 to measure bioluminescence. As a result, the bioluminescence of Vibrio harveyi BB170 was decreased by about 42 percents for the case of […] (designated as “Control”) when compared to the case of injecting the farnesol (see FIG. 18).

For `CC(C)=CCCC(C)=CCCC(C)=CCO` [Farnesol, farnesol], which “decrease of bioluminescence of Vibrio harveyi BB170” value is on record?
Its value is “about 42 percents”.
